Data on one compound can be found in US9636376B2, “Stable compositions of peptide epoxy ketones” (priority 2012, dated 2017).

Values after ≈ are worked out from the molar mass of the structure shown.

Series [1] can be described thus: Effect of pH on saturation solubility of carfilzomib. The settings on record: aqueous buffer, thermodynamic from solid. In kind it is physicochemical. The source says:
For instance, a buffer is typically used in the liquid pharmaceutical compositions of the invention to control the pH.

The subject of a further series is proteasome. The conditions noted are these: blood and tissue; cited from earlier work.
The test system of series [2] is solid and hematologic tumor cells. The settings on record: cited from earlier work.
Series [3] deals with models of multiple myeloma, hematologic, and solid tumors. The conditions noted are these: cited from earlier work.

With `CC(C)C[C@H](NC(=O)[C@H](CCc1ccccc1)NC(=O)CN1CCOCC1)C(=O)N[C@@H](Cc1ccccc1)C(=O)N[C@@H](CC(C)C)C(=O)[C@@]1(C)CO1` [Carfilzomib, (2S)—N—((S)-1-((S)-4-methyl-1-((R)-2-methyloxiran-2-yl)-1-oxopentan-2-ylcarbamoyl)-2-phenylethyl)-2-((S)-2-(2-morpholinoacetamido)-4-phenylbutanamido)-4-methylpentanamide], the solubility came to 459 µg/mL (≈ 638 µM) in series [1] (1% L-cysteine solution, pH 1.7 (1% L-Cysteine)); 125 µg/mL (≈ 174 µM) in series [1] (pH 3.5 (15 mM Acetate Buffer)); 9 µg/mL (≈ 12.5 µM) in series [1] (pH 5.0 (15 mM Citrate Buffer)); 5 µg/mL (≈ 6.95 µM) in series [1] (pH 7.0 (15 mM Phosphate Buffer)). Moreover, in the series on proteasome, the “Effect on proteasome activity” value is on record as “inhibit proteasome activity”. For the same compound, in series [2], the “Activities in vitro in tumor cells” value is “antiproliferative and proapoptotic activities”. Besides, the “Effect on tumor growth” value in series [3] is on record as “delay tumor growth”.

One may read the solubility as how much of the substance goes into solution per volume.
